Test results as given in the NIST ThermoML archive (doi:10.1021/acs.jced.5b00407).

Tests used:
[1] = refractive index (Na D-line) (dimensionless); mn = molality of the nth substance listed, in mol/kg; settings: 101.3 kPa, Liquid, Standard Abbe refractometry
[2] = mn = molality of the nth substance listed, in mol/kg; settings: 101.3 kPa, Liquid; for viscosity: Capillary tube (Ostwald / Ubbelohde) method; for mass density: Vibrating tube method

O=C([O-])[C@H](O)[C@@H](O)[C@H](O[C@@H]1O[C@H](CO)[C@H](O)[C@H](O)[C@H]1O)[C@H](O)CO.[Na+] [sodium lactobionate] + O
Settings	mass density, [2] [kg/m3]	refractive index, [1]	viscosity, [2] [mPa·s]
288.15 K, m1 = 0.0251	–	–	1.157
288.15 K, m1 = 0.0502	1010.5	–	1.177
288.15 K, m1 = 0.0753	1015.2	–	1.211
288.15 K, m1 = 0.1	1020.1	–	1.257
288.15 K, m1 = 0.126	1024.5	–	1.286
288.15 K, m1 = 0.151	1029.1	–	1.332
288.15 K, m1 = 0.176	1034.1	–	1.374
288.15 K, m1 = 0.201	1039	–	1.432
293.15 K, m1 = 0.0251	–	1.3331	1.018
293.15 K, m1 = 0.0502	1009.1	1.3344	1.036
293.15 K, m1 = 0.0753	1013.9	1.336	1.066
293.15 K, m1 = 0.1	1018.9	1.3376	1.106
293.15 K, m1 = 0.126	1023.3	1.3392	1.132
293.15 K, m1 = 0.151	1028.1	1.3406	1.171
293.15 K, m1 = 0.176	1033	1.3421	1.208
293.15 K, m1 = 0.201	1037.7	1.3435	1.26
298.15 K, m1 = 0.0251	–	1.3326	0.9041
298.15 K, m1 = 0.0502	1007.6	1.3339	0.9201
298.15 K, m1 = 0.0753	1012.6	1.3354	0.9457
298.15 K, m1 = 0.1	1017.7	1.337	0.9824
298.15 K, m1 = 0.126	1022.1	1.3385	1.006
298.15 K, m1 = 0.151	1026.9	1.34	1.041
298.15 K, m1 = 0.176	1031.8	1.3415	1.074
298.15 K, m1 = 0.201	1036.4	1.343	1.119
303.15 K, m1 = 0.0251	–	1.3321	0.8091
303.15 K, m1 = 0.0502	1006.2	1.3334	0.8233
303.15 K, m1 = 0.0753	1011.2	1.3348	0.8464
303.15 K, m1 = 0.1	1016.4	1.3364	0.8796
303.15 K, m1 = 0.126	1020.8	1.3378	0.9001
303.15 K, m1 = 0.151	1025.5	1.3393	0.9321
303.15 K, m1 = 0.176	1030.3	1.3409	0.9614
303.15 K, m1 = 0.201	1035.1	1.3425	1.002
308.15 K, m1 = 0.0251	–	1.3316	0.7289
308.15 K, m1 = 0.0502	1004.5	1.3328	0.7415
308.15 K, m1 = 0.0753	1009.7	1.3342	0.7623
308.15 K, m1 = 0.1	1014.9	1.3357	0.7921
308.15 K, m1 = 0.126	1019.4	1.3371	0.8111
308.15 K, m1 = 0.151	1023.9	1.3387	0.8399
308.15 K, m1 = 0.176	1028.8	1.3403	0.8655
308.15 K, m1 = 0.201	1033.5	1.342	0.9029
313.15 K, m1 = 0.0251	–	1.331	0.6612
313.15 K, m1 = 0.0502	1003.1	1.3322	0.6729
313.15 K, m1 = 0.0753	1008.1	1.3335	0.692
313.15 K, m1 = 0.1	1013.3	1.335	0.7187
313.15 K, m1 = 0.126	1017.8	1.3364	0.7357
313.15 K, m1 = 0.151	1022.1	1.338	0.7622
313.15 K, m1 = 0.176	1027.2	1.3397	0.7851
313.15 K, m1 = 0.201	1031.8	1.3415	0.8191
318.15 K, m1 = 0.0251	–	1.3304	0.6029
318.15 K, m1 = 0.0502	1001.6	1.3316	0.6136
318.15 K, m1 = 0.0753	1006.5	1.3329	0.6313
318.15 K, m1 = 0.1	1011.5	1.3343	0.6556
318.15 K, m1 = 0.126	1015.9	1.3357	0.6711
318.15 K, m1 = 0.151	1020.5	1.3373	0.6951
318.15 K, m1 = 0.176	1025.3	1.3391	0.7157
318.15 K, m1 = 0.201	1030	1.3409	0.7469
323.15 K, m1 = 0.0251	–	1.3297	0.5523
323.15 K, m1 = 0.0502	999.8	1.3309	0.5625
323.15 K, m1 = 0.0753	1004.7	1.3322	0.5789
323.15 K, m1 = 0.1	1009.5	1.3336	0.6009
323.15 K, m1 = 0.126	1013.9	1.3349	0.6151
323.15 K, m1 = 0.151	1018.4	1.3365	0.6372
323.15 K, m1 = 0.176	1023.2	1.3384	0.6565
323.15 K, m1 = 0.201	1028	1.3404	0.6849
